10 compounds from ChEMBL document CHEMBL1201862, “PubChem BioAssay data set” (2004) can be followed below.

Molecules are shown by their SMILES. Active and inactive are the calls of the source.

A word on the IC50: it is the concentration at which inhibition is half-maximal. As a reminder, the AC50 is the midpoint of the concentration-response curve, whichever way the signal moves. By EC50 is commonly meant the midpoint of the concentration-response curve.

Assay [1] concerns the target Potassium channel subfamily K member 9 (Homo sapiens, UniProt Q9NPC2). In words: TASK3 (KCNK9) channel inhibitors, thallium flux, SAR follow-up, selectivity assay for TASK1 inhibitor project, cell-based, FluxOR thallium flux, concentration-response (AID 652211).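 Note: potency is for inhibitors of the channel.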 In kind it is functional.
Assay [2] concerns the target Potassium channel subfamily K member 3 (Rattus norvegicus, UniProt O54912). Nature of the assay: SAR analysis for the identification of selective inhibitors of the two-pore domain potassium channel TASK1(KCNK3):Automated Electrophysiology. In kind it is functional.
The target of assay [3] is Potassium channel subfamily K member 3 (Homo sapiens, UniProt O14649). Nature of the assay: TASK1 (KCNK3) potassium channel inhibitors, SAR follow-up, CHO cells, FluxOR thallium flux (AID 652212). In kind it is functional.
Assay [4] deals with Metabotropic glutamate receptor 3 (Rattus norvegicus, UniProt P31422). Nature of the assay: mGlu3 NAM potency via calcium readout, dose response, mGlu3 NAM project, TREx293 cells, Galpha15, calcium flux (AID 651840). In kind it is functional. For orientation: A change in cytosolic calcium serves as a functional read-out for many receptors and channels.
Assay [5] addresses Disintegrin and metalloproteinase domain-containing protein 17 (Homo sapiens, UniProt P78536). In words: exosite inhibitors of ADAM17, dose response, biochemical (AID 743260).
The nature of assay [6]: ADAM10 protease inhibitors, dose response, selectivity assay for ADAM17 exosite inhibitor project, biochemical, FRET peptide substrate, recombinant human ADAM10 (AID 743259).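 Note: ADAM10 enzyme cleaving a FRET peptide substrate.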
Assay [7] can be described thus: T. cruzi growth inhibition in host cells, dose response, cell-based, plate reader, dry powder, set 2 (AID 652275). It counts as functional.
The nature of assay [8]: T. cruzi intracellular amastigote growth inhibition, dose response, imaging, CA-I/72 strain, bovine embryo skeletal muscle, dry powder (AID 651885). It counts as functional, cell-based.
A short description of assay [9]: HEK293T cell cytotoxicity, dose response, cytotoxicity control, luminescence plate reader, powder samples, set 4 (AID 651863). In kind it is functional, cell-based. Conditions: HEK293.
The nature of assay [10]: inhibitors of HIV Env-driven cell fusion, dose response, cherry-pick (AID 652057). In kind it is functional, cell-based.
The target in assay [11] is Paired box protein Pax-8 (Homo sapiens, UniProt Q06710). Nature of the assay: inhibitors of PAX8-driven TPO luciferase reporter, dose response, RMG-I cells, cherry-pick (AID 687027).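 Note: luciferase reporter driven by Pax8 target thyroperoxidase promoter measured by SteadyGlo luminescence.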 It counts as functional, cell-based. For orientation: In a reporter assay the amount or activity of a reporter protein is the signal.
Assay [12] can be described thus: PAX2 cell-based inhibition, dose response, selectivity assay for PAX8 inhibitor project, plate reader, dry powder samples (AID 743048).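 Note: HEK293 cells carrying a WT1 promoter luciferase reporter driven by expressed Pax2; potency is for inhibition of Pax2 driven reporter signal.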 In kind it is functional.
Assay [13] is described as follows: NIH:OVCAR-3 ovarian cancer cell cytotoxicity, dose response, PAX8 inhibitor project, plate reader, dry powder samples (AID 743044). In kind it is functional, cell-based.
Assay [14] can be described thus: PAX5 activity inhibitors, dose response, selectivity assay for PAX8 inhibitor project, cell-based, plate reader, dry powder samples (AID 743047).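 Note: HEK293 cells carrying a Pax5 driven CD19 promoter luciferase reporter; potency of inhibitors that lower reporter luminescence.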 In kind it is functional.
The nature of assay [15]: cytotoxicity in OVCAR4 cells, dose response, cytotoxicity control for PAX8 inhibitor project, cell-based, plate reader, dry powder, SA11 (AID 743150). In kind it is functional. Conditions: OVCAR-4.
The nature of assay [16]: cytotoxicity in COV434 cells, dose response, cytotoxicity control for PAX8 inhibitor project, cell-based, plate reader, dry powder, SA7 (AID 743145). In kind it is functional.
A short description of assay [17]: cytotoxicity in OV-90 ovarian cancer cells, dose response, PAX8 inhibitor project, cell-based, plate reader, dry powder, SA8 (AID 743149). It counts as functional.
A short description of assay [18]: cytotoxicity in OVCAR8 ovarian cancer cells, dose response, PAX8 project, cell-based, plate reader, dry powder samples (AID 743197). Conditions: OVCAR-8. It counts as functional.
Assay [19] is described as follows: cytotoxicity dependent on PAX8, dose response, cell-based, plate reader, dry powder (AID 743049). In kind it is functional.
Assay [20] can be described thus: A549 cell cytotoxicity, dose response, cytotoxicity control, plate reader, cherry-pick, antagonist series (AID 743412). In kind it is functional, cell-based.
Assay [21] can be described thus: LGR2 antagonists, dose response, cell-based, HEK293, CRE-luciferase reporter, cherry pick (AID 743342). It counts as functional.
The nature of assay [22]: MC4R antagonists, dose response, counter-screen for LGR2 antagonist project, cell-based, plate reader, cherry pick (AID 743444).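 Note: transfected HEK 293 cells stimulated with alpha-MSH peptide; potency of inhibitors of the alpha-MSH evoked signal.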 It counts as functional.
Assay [23] is described as follows: NIH-3T3 fibroblast cytotoxicity, dose response, cytotoxicity control, cell-based, fluorescence, Alamar Blue, secondary assay (AID 2327).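 Note: NIH-3T3 mouse fibroblasts cultured with fluconazole at 8 µg/mL.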 It counts as functional. (Alamar Blue is a resazurin reagent that responds to reducing activity.)
Assay [24] is described as follows: C. albicans growth with fluconazole, confirmation, fluorescence, retest (AID 2467). It counts as functional, cell-based.
Assay [25] can be described thus: Luminescence Cell-Based Dose Retest to Confirm Inhibitors of Cancer Stem Cells. [Related pubchem assays (depositor defined):AID2717, AID2721]. It counts as functional, Homo sapiens. Conditions: Homo sapiens.
A short description of assay [26]: human group III sPLA2 inhibitors, dose response, biochemical, QFRET, IC50 (AID 743457).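 Note: green fluorescence rise as the enzyme cleaves BODIPY PC-A2 in liposomes; potency for inhibition of the enzyme.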
The nature of assay [27]: Late stage assay provider results from the probe development effort to identify selective inhibitors of heat shock protein 90 (HSP90): Absorbance-based cell proliferation assay in SKBR3 cells. It counts as functional. Conditions: SK-BR-3.
The nature of assay [28]: Late stage assay provider results from the probe development effort to identify selective inhibitors of heat shock protein 90 (HSP90): Absorbance-based cell proliferation assay in MCF7 cells. In kind it is functional.
Assay [29] has as its target T1, Mannose-6-phosphate isomerase (Homo sapiens, UniProt P34949).
T1 sequence (P34949 whole entry): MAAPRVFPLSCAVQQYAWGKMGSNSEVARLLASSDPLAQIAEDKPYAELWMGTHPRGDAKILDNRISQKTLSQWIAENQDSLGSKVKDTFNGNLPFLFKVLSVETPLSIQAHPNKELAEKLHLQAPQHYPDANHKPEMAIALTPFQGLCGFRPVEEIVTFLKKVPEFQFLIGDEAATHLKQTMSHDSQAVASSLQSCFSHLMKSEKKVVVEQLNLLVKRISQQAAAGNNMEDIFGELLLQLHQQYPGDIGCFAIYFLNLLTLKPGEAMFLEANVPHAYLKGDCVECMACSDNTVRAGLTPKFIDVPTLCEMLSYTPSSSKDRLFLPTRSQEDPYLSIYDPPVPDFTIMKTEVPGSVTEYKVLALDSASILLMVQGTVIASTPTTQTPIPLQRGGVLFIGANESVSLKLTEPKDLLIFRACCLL
In words: inhibitors of human PMI, primary screen, biochemical, fluorescence intensity, coupled assay (AID 1209).

Assay [30] relates to T-cell. Nature of the assay: inhibitors of CD8+ T cell–vesicle binding, dose response, mouse 2C CD8+ T cells, flow cytometry (AID 485284). In kind it is functional.
Assay [31] deals with Kallikrein-7 (Homo sapiens, UniProt P49862). Nature of the assay: Fluorescence Intensity-based biochemical primary high throughput dose response assay to identify activators of kallikrein-7 (K7) zymogen.
The nature of assay [32]: EDANS-DABCYL fluorescence interference, concentration series, dose response, artefact control for kallikrein-7 zymogen activator project, biochemical, fluorescence intensity, triplicate (AID 720493).

Metabotropic glutamate receptor 3, sequence (P31422 whole entry, the tested form may be a part): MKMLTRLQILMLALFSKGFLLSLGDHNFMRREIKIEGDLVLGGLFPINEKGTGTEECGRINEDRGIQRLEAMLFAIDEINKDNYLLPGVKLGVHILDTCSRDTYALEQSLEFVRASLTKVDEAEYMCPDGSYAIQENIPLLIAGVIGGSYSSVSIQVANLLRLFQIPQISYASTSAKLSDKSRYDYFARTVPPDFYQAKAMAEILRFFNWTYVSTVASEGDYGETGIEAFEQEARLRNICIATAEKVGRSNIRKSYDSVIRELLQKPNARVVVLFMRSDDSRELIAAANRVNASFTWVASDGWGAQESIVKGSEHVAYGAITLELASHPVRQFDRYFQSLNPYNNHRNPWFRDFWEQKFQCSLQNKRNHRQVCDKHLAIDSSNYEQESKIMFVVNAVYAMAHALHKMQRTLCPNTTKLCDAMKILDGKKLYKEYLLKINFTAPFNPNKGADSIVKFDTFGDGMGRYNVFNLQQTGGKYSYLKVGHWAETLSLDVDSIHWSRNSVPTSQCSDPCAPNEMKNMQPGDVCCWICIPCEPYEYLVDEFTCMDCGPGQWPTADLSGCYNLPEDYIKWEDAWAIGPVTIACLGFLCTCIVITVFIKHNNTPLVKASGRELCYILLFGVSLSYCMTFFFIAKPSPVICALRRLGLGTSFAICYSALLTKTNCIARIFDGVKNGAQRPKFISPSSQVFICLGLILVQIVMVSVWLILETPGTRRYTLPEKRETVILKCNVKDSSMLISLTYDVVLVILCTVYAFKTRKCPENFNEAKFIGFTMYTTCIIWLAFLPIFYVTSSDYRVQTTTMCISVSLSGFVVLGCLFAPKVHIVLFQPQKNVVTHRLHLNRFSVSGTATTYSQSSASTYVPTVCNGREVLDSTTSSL
Potassium channel subfamily K member 3 (Rattus norvegicus, UniProt O54912), sequence (O54912 whole entry, the tested form may be a part): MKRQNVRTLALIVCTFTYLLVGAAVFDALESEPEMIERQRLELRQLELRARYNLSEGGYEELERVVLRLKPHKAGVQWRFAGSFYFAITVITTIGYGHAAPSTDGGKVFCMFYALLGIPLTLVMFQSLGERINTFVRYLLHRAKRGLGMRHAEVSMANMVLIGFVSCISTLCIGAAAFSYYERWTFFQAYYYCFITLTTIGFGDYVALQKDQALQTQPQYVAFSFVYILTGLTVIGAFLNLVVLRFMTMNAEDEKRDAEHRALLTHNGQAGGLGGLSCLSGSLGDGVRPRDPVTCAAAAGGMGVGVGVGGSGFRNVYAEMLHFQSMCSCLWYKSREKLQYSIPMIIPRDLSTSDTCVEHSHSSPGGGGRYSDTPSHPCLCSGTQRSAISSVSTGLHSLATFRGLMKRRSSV
Potassium channel subfamily K member 3 (Homo sapiens, UniProt O14649), sequence (O14649 whole entry): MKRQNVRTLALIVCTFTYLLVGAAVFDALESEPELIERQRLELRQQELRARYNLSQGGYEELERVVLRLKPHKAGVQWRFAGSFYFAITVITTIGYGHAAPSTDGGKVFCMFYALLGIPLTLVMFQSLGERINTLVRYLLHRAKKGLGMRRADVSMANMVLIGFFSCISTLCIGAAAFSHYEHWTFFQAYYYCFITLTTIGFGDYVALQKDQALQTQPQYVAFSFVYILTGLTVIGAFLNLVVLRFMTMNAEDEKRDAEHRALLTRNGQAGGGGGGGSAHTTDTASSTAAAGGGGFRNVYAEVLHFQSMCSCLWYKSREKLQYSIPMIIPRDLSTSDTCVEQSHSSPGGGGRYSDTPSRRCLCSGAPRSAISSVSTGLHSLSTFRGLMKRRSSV
Paired box protein Pax-8, sequence (Q06710 whole entry): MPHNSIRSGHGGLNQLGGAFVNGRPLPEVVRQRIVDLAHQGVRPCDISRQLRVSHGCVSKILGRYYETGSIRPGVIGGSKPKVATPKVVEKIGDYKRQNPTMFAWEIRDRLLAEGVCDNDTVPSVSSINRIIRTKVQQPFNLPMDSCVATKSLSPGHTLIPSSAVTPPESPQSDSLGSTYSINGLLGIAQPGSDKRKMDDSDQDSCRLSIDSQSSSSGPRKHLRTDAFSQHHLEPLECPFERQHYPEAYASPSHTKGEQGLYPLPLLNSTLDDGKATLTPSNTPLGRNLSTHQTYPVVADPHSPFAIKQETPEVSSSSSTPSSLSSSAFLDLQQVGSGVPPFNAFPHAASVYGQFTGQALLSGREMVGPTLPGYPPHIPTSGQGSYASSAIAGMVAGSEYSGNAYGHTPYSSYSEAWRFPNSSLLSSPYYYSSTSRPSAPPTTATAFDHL
Potassium channel subfamily K member 9, sequence (Q9NPC2 whole entry, the tested form may be a part): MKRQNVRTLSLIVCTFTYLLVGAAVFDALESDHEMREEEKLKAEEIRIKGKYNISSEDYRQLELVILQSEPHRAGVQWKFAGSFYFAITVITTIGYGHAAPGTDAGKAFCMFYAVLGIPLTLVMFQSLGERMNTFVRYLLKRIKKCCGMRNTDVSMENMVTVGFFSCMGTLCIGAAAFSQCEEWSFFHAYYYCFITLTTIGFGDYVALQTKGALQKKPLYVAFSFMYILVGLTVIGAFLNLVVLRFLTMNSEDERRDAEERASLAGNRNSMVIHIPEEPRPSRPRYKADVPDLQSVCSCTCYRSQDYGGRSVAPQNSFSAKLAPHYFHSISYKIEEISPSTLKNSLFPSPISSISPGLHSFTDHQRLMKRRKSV
Kallikrein-7, sequence (P49862 whole entry): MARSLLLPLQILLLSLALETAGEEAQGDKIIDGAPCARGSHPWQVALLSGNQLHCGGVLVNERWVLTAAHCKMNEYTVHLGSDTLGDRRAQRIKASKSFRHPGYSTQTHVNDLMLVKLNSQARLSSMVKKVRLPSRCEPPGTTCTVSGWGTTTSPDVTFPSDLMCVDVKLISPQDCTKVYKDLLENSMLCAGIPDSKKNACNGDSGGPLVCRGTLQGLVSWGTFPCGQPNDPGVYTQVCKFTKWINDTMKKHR
Disintegrin and metalloproteinase domain-containing protein 17, sequence (P78536 whole entry, the tested form may be a part): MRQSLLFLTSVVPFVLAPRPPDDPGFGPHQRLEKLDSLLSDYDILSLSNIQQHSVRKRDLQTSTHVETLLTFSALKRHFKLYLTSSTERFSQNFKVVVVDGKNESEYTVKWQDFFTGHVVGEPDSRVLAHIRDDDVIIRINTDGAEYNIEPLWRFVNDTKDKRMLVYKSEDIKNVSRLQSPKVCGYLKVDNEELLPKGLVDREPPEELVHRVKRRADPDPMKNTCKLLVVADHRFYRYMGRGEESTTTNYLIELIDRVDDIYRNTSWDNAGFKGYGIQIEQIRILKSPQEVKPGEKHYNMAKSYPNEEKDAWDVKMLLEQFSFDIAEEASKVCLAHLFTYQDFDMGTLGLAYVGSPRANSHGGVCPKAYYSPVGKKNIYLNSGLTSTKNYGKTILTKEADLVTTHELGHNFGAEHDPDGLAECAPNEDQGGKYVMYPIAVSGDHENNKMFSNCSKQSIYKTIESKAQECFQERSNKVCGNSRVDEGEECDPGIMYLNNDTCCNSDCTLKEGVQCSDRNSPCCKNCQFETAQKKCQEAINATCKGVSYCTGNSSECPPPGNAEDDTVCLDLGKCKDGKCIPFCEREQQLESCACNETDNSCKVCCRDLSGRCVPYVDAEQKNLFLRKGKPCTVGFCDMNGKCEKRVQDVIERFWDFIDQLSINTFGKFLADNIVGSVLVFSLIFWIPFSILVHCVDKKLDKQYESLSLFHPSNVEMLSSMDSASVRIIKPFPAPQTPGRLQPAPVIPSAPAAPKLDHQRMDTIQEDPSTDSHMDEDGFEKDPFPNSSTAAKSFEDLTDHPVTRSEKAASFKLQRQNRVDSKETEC

Turning to `Cc1cccc(C(=O)Nc2cccc(NC(=O)c3ccccc3)c2)c1`, the IC50 was 0.36 µM (active) in assay [1], 0.075 µM (active) in assay [2] and 0.015 µM (active) in assay [3].
Regarding `COc1ccc(C#Cc2ccc(C(=O)N3CCC(=O)C(C)C3)cc2)cc1` (configuration not stated), the half-maximal inhibitory concentration (IC50) in [4] worked out at 8.95 µM.
For `CCOC(=O)c1c(NC(=O)Cn2nc(C(F)F)cc2C(F)F)sc(C)c1C`, the IC50 in assay [5] and in assay [6] was > 69.5 µM (inactive) throughout.
Consider `C[C@@H]1CN([C@@H](C)CO)C(=O)c2cc(-c3cncnc3)cnc2O[C@H]1CN(C)Cc1ccc(Oc2ccccc2)cc1`, for which, in [7], the half-maximal activity concentration (AC50) was 0.403 µM (active). The IC50 in assay [8] was > 20 µM (inactive).
Regarding `Cc1ccc(S(=O)(=O)NNc2nc(NCC(N)=O)nc3ccccc23)cc1`, in assay [9], the AC50 was > 52 µM (inactive).
Take `COc1ccccc1C#Cc1ccc2c(c1)O[C@@H](CN(C)Cc1ccncc1)[C@H](C)CN([C@H](C)CO)S2(=O)=O`: the AC50 in [10] is 42.1 µM (active); in [11] it was 2.39 µM (active); in assay [12], 2.28 µM (active); in assay [13], 13.3 µM (active); in assay [14], 9.35 µM (active); in assay [15], 11.5 µM (active). Further, the AC50 in [16] is 94.6 pM (active); in assay [17], 7.34 µM (active); in assay [18] it was 27.7 µM (active); in assay [19], 4.51 µM (active).
As for `C[C@H](CO)N1C[C@H](C)[C@H](CN(C)C(=O)Nc2ccccc2)OCCCC[C@H](C)Oc2ccc(NC(=O)Nc3ccc4c(c3)OCO4)cc2C1=O`, the results for the AC50 in assay [20], in [21] and in [22] were > 52 µM (inactive), 36.6 µM (active) and 25.4 µM (active), respectively.
For the compound `Cc1cc(C)c2nc(NNC(=O)c3cc(-c4cccs4)nc4ccccc34)sc2c1`, the EC50 was 10.7 µM (active) in assay [23] and > 38 µM (not active) in assay [24]. Further, in assay [25], the concentration at half-maximal activity (AC50) was 2.13 µM (active). In assay [26], the IC50 is 53.9 µM (inactive).
Consider `Cc1c(Cl)c(=O)oc2c(C)c(OCc3ccccc3)ccc12`, for which the IC50 in assay [27] and in assay [28] was > 100 µM (inactive) throughout.
Take `Cc1c2cccn2cc[n+]1C`: in [29], the half-inhibitory concentration (IC50) was > 50 µM (not active). Moreover, the EC50 in [30] was 79.2 µM (inactive); in [31], 17.5 µM (inactive); in assay [32], > 7.72 µM (active).
